According to PubChem BioAssay AID2060621 (Molecular Pharmacology Branch, DTP, NCI, 2025):
“And” between values parts separate entries of the source, which are not always exact repeats. Equal values may be shown once.

System: 324938-238-R-J1-PDC complex spheroids viability
Assay: Anticancer human tumor 324938-238-R-J1-PDC patient-derived bladder carcinoma cell line growth inhibition [CLK]
Conditions: for viability, T/C: stronger effect = lower value
Procedure, shortened: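 Patient-derived tumor cells grown as complex spheroids with HUVEC endothelial cells and mesenchymal stem cells, treated with drug combinations. Concentrations descend in half-log steps from near clinical Cmax, or from 10 microM if Cmax unknown.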
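Note: viability read after seven days of drug exposure.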
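Throughout, for viability, T/C: 100% = DMSO vehicle control wells.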

C=CC(=O)N1CCN(c2nc(=O)n(-c3c(C)ccnc3C(C)C)c3nc(-c4c(O)cccc4F)c(F)cc23)C(C)C1 (centres undefined) was tested, and the viability, T/C (compound 0.0316 µM) was 79.1% and 96.4%, the viability, T/C (compound 0.1 µM) was 91.3% and 85% and the viability, T/C (compound 0.316 µM) was 85.2% and 93.5%. The viability, T/C (compound 1 µM) was 102% and 99.9%, the viability, T/C (compound 3.16 µM) was 105% and 99.1% and the viability, T/C (compound 10 µM) was 87.9% and 86.4%. For the same compound, the IC50 (curve of compound) was > 10000 nM.
With COc1ccc([C@@H](O)c2cc(-c3ncnc4cc(N5CCOCC5)ccc34)c(F)cc2Cl)nn1 + CNC(=O)c1ccc(Nc2nc(OC3CCCC3)c3c(-c4ccc5nc(C)oc5c4)c[nH]c3n2)c(OC)c1 the IC50 (curve of first compound, second compound 0.0316 µM) was 3770 nM, the IC50 (curve of first compound, second compound 0.1 µM) was < 31.6 nM and the IC50 (curve of first compound, second compound 0.316 µM) was < 31.6 nM. For the same compound, the IC50 (curve of first compound, second compound 1 µM) was < 31.6 nM, the IC50 (curve of first compound, second compound 3.16 µM) was < 31.6 nM and the IC50 (curve of first compound, second compound 10 µM) was < 31.6 nM. The viability, T/C (second compound 0.0316 µM, first compound 0.0316 µM) was 86.8%, the viability, T/C (second compound 0.0316 µM, first compound 0.1 µM) was 76.4% and the viability, T/C (second compound 0.0316 µM, first compound 0.316 µM) was 70.3%. For the same compound, the viability, T/C (second compound 0.0316 µM, first compound 1 µM) was 63.5%, the viability, T/C (second compound 0.0316 µM, first compound 3.16 µM) was 56.5% and the viability, T/C (second compound 0.0316 µM, first compound 10 µM) was 35.9%. For the same compound, the viability, T/C (second compound 0.1 µM, first compound 0.0316 µM) was 27.6%, the viability, T/C (second compound 0.1 µM, first compound 0.1 µM) was 26.3% and the viability, T/C (second compound 0.1 µM, first compound 0.316 µM) was 22.9%. The viability, T/C (second compound 0.1 µM, first compound 1 µM) was 28%, the viability, T/C (second compound 0.1 µM, first compound 3.16 µM) was 29% and the viability, T/C (second compound 0.1 µM, first compound 10 µM) was 22.7%. For the same compound, the viability, T/C (second compound 0.316 µM, first compound 0.0316 µM) was 18.5%, the viability, T/C (second compound 0.316 µM, first compound 0.1 µM) was 20.5% and the viability, T/C (second compound 0.316 µM, first compound 0.316 µM) was 17.9%. It also gave a viability, T/C (second compound 0.316 µM, first compound 1 µM) of 16.5%, a viability, T/C (second compound 0.316 µM, first compound 3.16 µM) of 14.6% and a viability, T/C (second compound 0.316 µM, first compound 10 µM) of 16.1%. For the same compound, the viability, T/C (second compound 1 µM, first compound 0.0316 µM) was 16%, the viability, T/C (second compound 1 µM, first compound 0.1 µM) was 14.5% and the viability, T/C (second compound 1 µM, first compound 0.316 µM) was 16%. The viability, T/C (second compound 1 µM, first compound 1 µM) was 14.8%, the viability, T/C (second compound 1 µM, first compound 3.16 µM) was 12.9% and the viability, T/C (second compound 1 µM, first compound 10 µM) was 11.2%. It also gave a viability, T/C (second compound 3.16 µM, first compound 0.0316 µM) of 18.1%, a viability, T/C (second compound 3.16 µM, first compound 0.1 µM) of 14.2% and a viability, T/C (second compound 3.16 µM, first compound 0.316 µM) of 16.2%. For the same compound, the viability, T/C (second compound 3.16 µM, first compound 1 µM) was 14.7%, the viability, T/C (second compound 3.16 µM, first compound 3.16 µM) was 14.9% and the viability, T/C (second compound 3.16 µM, first compound 10 µM) was 9.35%. The viability, T/C (second compound 10 µM, first compound 0.0316 µM) was 15.6%, the viability, T/C (second compound 10 µM, first compound 0.1 µM) was 16.7% and the viability, T/C (second compound 10 µM, first compound 0.316 µM) was 16.9%. It also gave a viability, T/C (second compound 10 µM, first compound 1 µM) of 16.8%, a viability, T/C (second compound 10 µM, first compound 3.16 µM) of 11.1% and a viability, T/C (second compound 10 µM, first compound 10 µM) of 12.1%.
